Results: ChEMBL document CHEMBL2203078, “Identification of amides as carboxylic Acid surrogates for quinolizidinone-based m1 positive allosteric modulators” (ACS Med Chem Lett, 2012)
Activity calls are given as the source filed them. The calls are words filed in the database; no cut-off is given here.

Tests used:
Type in all cases: functional, cell-based
[1] = target: T1, Muscarinic acetylcholine receptor M4 (Homo sapiens) (UniProt P08173); test: Activity at muscarinic M4 receptor expressing in CHONFAT cells assessed as potentiation of acetylcholine-induced calcium mobilization preincubated for 4 mins and measured 4 mins after acetylcholine stimulation by FLIPR assay
T1 sequence (whole entry): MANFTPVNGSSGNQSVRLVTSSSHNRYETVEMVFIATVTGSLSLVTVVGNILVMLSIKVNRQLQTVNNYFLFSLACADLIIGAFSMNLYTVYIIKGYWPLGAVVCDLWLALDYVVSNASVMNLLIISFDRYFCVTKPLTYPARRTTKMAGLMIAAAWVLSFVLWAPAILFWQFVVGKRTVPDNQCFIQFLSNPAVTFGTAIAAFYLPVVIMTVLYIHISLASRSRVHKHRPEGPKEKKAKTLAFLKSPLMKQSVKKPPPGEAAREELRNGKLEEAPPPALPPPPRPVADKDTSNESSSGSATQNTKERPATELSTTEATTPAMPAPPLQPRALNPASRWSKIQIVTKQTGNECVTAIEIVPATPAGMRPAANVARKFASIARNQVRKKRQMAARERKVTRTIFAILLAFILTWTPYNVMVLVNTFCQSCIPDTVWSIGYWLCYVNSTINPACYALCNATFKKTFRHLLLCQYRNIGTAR

[2] = target: T2, Muscarinic acetylcholine receptor M2 (Homo sapiens) (UniProt P08172); test: Activity at muscarinic M2 receptor expressing in CHONFAT cells assessed as potentiation of acetylcholine-induced calcium mobilization preincubated for 4 mins and measured 4 mins after acetylcholine stimulation by FLIPR assay
T2 sequence (whole entry): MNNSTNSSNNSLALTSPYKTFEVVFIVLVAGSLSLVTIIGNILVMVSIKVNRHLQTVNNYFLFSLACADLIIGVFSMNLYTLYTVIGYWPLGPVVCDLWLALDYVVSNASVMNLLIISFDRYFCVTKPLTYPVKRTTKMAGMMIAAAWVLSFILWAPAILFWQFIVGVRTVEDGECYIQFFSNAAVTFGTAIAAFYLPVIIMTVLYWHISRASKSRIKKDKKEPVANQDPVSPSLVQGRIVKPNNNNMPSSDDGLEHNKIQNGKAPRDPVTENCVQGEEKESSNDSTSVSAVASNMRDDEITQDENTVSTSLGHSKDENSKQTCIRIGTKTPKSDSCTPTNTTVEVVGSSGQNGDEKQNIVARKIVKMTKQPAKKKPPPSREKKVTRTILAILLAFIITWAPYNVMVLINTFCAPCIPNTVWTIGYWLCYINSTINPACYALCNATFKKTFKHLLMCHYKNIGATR

[3] = target: T3, Muscarinic acetylcholine receptor M1 (Homo sapiens) (UniProt P11229); test: Positive allosteric modulation of human muscarinic M1 receptor expressing in CHONFAT cells assessed as potentiation of acetylcholine-induced calcium mobilization preincubated for 4 mins and measured 4 mins after acetylcholine stimulation by FLIPR assay
T3 sequence (whole entry): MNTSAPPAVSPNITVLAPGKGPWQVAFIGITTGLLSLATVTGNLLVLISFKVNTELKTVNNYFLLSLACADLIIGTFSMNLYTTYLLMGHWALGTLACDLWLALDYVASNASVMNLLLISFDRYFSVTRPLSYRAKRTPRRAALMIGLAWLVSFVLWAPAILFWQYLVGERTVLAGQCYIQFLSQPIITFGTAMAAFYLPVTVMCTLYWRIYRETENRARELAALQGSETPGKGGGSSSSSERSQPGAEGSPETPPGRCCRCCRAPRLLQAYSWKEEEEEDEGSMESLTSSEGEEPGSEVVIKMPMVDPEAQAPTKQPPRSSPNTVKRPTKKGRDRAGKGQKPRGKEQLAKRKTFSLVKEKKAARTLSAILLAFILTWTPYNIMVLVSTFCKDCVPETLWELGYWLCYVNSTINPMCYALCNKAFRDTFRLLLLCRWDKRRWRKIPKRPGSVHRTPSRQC

[4] = target: Muscarinic acetylcholine receptor M3 (Homo sapiens) (UniProt P20309); test: Activity at muscarinic M3 receptor expressing in CHONFAT cells assessed as potentiation of acetylcholine-induced calcium mobilization preincubated for 4 mins and measured 4 mins after acetylcholine stimulation by FLIPR assay
Muscarinic acetylcholine receptor M3 (Homo sapiens), sequence (P20309 whole entry, looked up): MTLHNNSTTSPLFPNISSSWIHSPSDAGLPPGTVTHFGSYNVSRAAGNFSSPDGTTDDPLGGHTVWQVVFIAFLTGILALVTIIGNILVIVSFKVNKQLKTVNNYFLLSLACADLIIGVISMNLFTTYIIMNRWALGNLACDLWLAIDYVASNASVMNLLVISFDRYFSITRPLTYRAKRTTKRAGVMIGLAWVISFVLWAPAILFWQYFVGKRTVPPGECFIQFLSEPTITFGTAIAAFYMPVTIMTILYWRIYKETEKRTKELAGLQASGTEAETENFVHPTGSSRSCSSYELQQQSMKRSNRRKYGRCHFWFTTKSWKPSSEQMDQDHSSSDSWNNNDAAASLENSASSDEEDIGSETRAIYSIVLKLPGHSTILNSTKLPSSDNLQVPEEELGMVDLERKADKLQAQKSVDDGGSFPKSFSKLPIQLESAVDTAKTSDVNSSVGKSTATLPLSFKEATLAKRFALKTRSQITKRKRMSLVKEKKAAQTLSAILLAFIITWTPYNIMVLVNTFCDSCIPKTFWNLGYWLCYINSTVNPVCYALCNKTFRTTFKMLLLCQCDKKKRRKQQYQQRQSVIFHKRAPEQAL

| Activity [1] | Activity [2] | IP [3] [nM] | Activity [4] | Structure (SMILES) |
| --- | --- | --- | --- | --- |
| inactive | inactive | 23000 | inactive | COc1ccc(Cn2cc(C(=O)Nc3ccccc3C)c(=O)c3ccccc32)cc1 |
| inactive | inactive | 93 | inactive | C[C@@]1(O)CCCC[C@H]1NC(=O)c1cc(CN2CCC(C#N)(c3ccccn3)CC2)c2ccccn2c1=O |
| inactive | inactive | 4400 | inactive | CN(C(=O)c1cc(CN2CCC(C#N)(c3ccccn3)CC2)c2ccccn2c1=O)C1CCOCC1 |
| inactive | inactive | 190 | inactive | C[C@H]1CCCC[C@@H]1NC(=O)c1cc(CN2CCC(C#N)(c3ccccn3)CC2)c2ccccn2c1=O |
| inactive | inactive | 7800 | inactive | N#CC1(c2ccccn2)CCN(Cc2cc(C(=O)N3CCCc4ccccc43)c(=O)n3ccccc23)CC1 |
| inactive | inactive | 177 | inactive | CS[C@H]1CCCC[C@@H]1NC(=O)c1cc(CN2CCC(C#N)(c3ccccn3)CC2)c2ccccn2c1=O |
| inactive | inactive | 640 | inactive | N#CC1(c2ccccn2)CCN(Cc2cc(C(=O)Nc3ccccn3)c(=O)n3ccccc23)CC1 |
| inactive | inactive | 2200 | inactive | N#CC1(c2ccccn2)CCN(Cc2cc(C(=O)NC3CC3)c(=O)n3ccccc23)CC1 |
| inactive | inactive | 4300 | inactive | CNC(=O)c1cc(CN2CCC(C#N)(c3ccccn3)CC2)c2ccccn2c1=O |
| inactive | inactive | 780 | inactive | N#CC1(c2ccccn2)CCN(Cc2cc(C(=O)NC3CCCC3)c(=O)n3ccccc23)CC1 |
| inactive | inactive | 2600 | inactive | N#CC1(c2ccccn2)CCN(Cc2cc(C(=O)NC3CCCOC3)c(=O)n3ccccc23)CC1 (stereo unspecified) |
| inactive | inactive | 1300 | inactive | Cn1cc(NC(=O)c2cc(CN3CCC(C#N)(c4ccccn4)CC3)c3ccccn3c2=O)nn1 |
| inactive | inactive | 381 | inactive | CO[C@H]1CCCC[C@@H]1NC(=O)c1cc(CN2CCC(C#N)(c3ccccn3)CC2)c2ccccn2c1=O |
| inactive | inactive | 23000 | inactive | N#CC1(c2ccccn2)CCN(Cc2cc(C(=O)N3CCCC3)c(=O)n3ccccc23)CC1 |
| inactive | inactive | 304 | inactive | N#CC1(c2ccccn2)CCN(Cc2cc(C(=O)NC3CCCCCC3)c(=O)n3ccccc23)CC1 |
| inactive | inactive | 980 | inactive | N#CC1(c2ccccn2)CCN(Cc2cc(C(=O)NC3CCC3)c(=O)n3ccccc23)CC1 |
| inactive | inactive | 1900 | inactive | N#CC1(c2ccccn2)CCN(Cc2cc(C(N)=O)c(=O)n3ccccc23)CC1 |
| inactive | inactive | 344 | inactive | N#CC1(c2ccccn2)CCN(Cc2cc(C(=O)NC3CCSCC3)c(=O)n3ccccc23)CC1 |

| Structure (SMILES) | Activity [1] | Activity [2] | IP [3] [nM] | Activity [4] |
| --- | --- | --- | --- | --- |
| COc1ccc(Cn2cc(C(=O)NC3CCCCC3)c(=O)c3ccccc32)cc1 | inactive | inactive | 14000 | inactive |
